Assay results: US6479520B1, “Method of treating a patient having precancerous lesions with phenyl pyridinone derivatives” (Cell Pathways, Inc., priority 1995, dated 2002)

## CCCOc1cc(SC)ccc1-c1ccc(C#N)c(=O)[nH]1 [2(a), 3-Cyano-6-(4-methylthio-2-propoxyphenyl)-2(1H)-pyridinone]
  melting point: 196 to 197 °C

## CCCOc1cc(OC)ccc1-c1ccc(C#N)c(=O)[nH]1 [9(a), 3-Cyano-6-(4-methoxy-2-propoxyphenyl)-2(1H)-pyridinone]
  melting point: 183 to 183.5 °C
